In brackets after ≈: the same amount, converted by molar mass.
Experiments:
physchem [1] = conditions: organic solvent or mixture
physchem [2] = conditions: water

## O=C(CBr)N1CC([N+](=O)[O-])([N+](=O)[O-])C1 [ABDNAZ, N-(bromoacetyl)-3,3-dinitroazetidine]
Physchem [1]
  solubility: ~30 mg/mL (≈ 112 mM)
Physchem [2]
  solubility: 0.3 to 1.3 mg/mL (≈ 1.12 to 4.85 mM)

— patent US8471041B2 (priority 2010, dated 2013)
